From patent US8710198B2, “Caprazene as a novel compound and derivatives thereof, and caprazol as a novel compound and derivatives thereof” (Meiji Seika Pharma Co., Ltd., priority 2003, dated 2014)

Experiments:
Type in all cases: cell-based
Micrococcus luteus FDA16 = experiment: Minimum growth inhibitory concentration on agar culture medium by serial dilution method (Japanese Society of Chemotherapy)
Experimental: (§1) Minimum growth inhibitory concentrations (mcg/ml) of caprazene-1′″-amide derivatives of the formula (II) against some of microorganisms were measured on an agar culture medium by a serial dilution method according to the standard method as provided by Japanese Society of Chemotherapy. For the cultivation of Mycobacterium smegmatis (one of […]), however, there was used an agar culture medium with the addition of 1% glycerine (the same applies to in the following tests).
(§2) Minimum growth inhibitory concentrations (mcg/ml) of some of the caprazene-1′″-ester derivative of the formula (III) against some of microorganisms were measured on an agar culture medium by a serial dilution method according to the standard method as provided by Japanese Society of Chemotherapy.
(§3) Minimum growth inhibitory concentrations (mcg/ml) of some of the caprazol-1′″-amide derivative of the formula (V) against a variety of microorganisms were measured on an agar medium by a serial dilution method according to the standard method as provided by Japanese Society of Chemotherapy.
as §3, with “caprazol-1′″-amide-3′″-ester” for “caprazol-1′″-amide”, “(VI)” for “(V)”
as §3, with “caprazol-3′″-ester derivative or caprazol-1′″-ester-3′″-ester” for “caprazol-1′″-amide”, “(VII)” for “(V)”
(§4) Minimum growth inhibitory concentrations (mcg/ml) of some of the derivative of the formula (VIII) against a variety of microorganisms were measured on an agar medium by a serial dilution method according to the standard method as provided by Japanese Society of Chemotherapy.

[1] = system: Staphylococcus aureus FDA209P; experiment: as above
Experimental: as §1, §2, §3
as §4, with “of the caprazol-1′″-amide-3′″-ester derivative of” for “of the derivative of”, “the formula (VI) against a” for “the formula (VIII) against a”
as §4, with “of the caprazol-3′″-ester derivative or caprazol-1′″-ester-3′″-ester derivative of” for “of the derivative of”, “the formula (VII) against a” for “the formula (VIII) against a”
as §4

[2] = system: Mycobacterium smegmatis ATCC607; experiment: Minimum growth inhibitory concentration on agar culture medium with 1% glycerine by serial dilution method; details: agar culture medium with the addition of 1% glycerine
Experimental: as §1, §2, §3
as §4, with “of the caprazol-1′″-amide-3′″-ester derivative of” for “of the derivative of”, “the formula (VI) against a” for “the formula (VIII) against a”
as §4, with “of the caprazol-3′″-ester derivative or caprazol-1′″-ester-3′″-ester derivative of” for “of the derivative of”, “the formula (VII) against a” for “the formula (VIII) against a”

| SMILES | Minimum growth inhibitory concentration (mcg/ml) against bacteria Micrococcus luteus FDA16 (Micrococcus luteus FDA16) [µg/mL] | Minimum growth inhibitory concentration (mcg/ml) against bacteria Staphylococcus aureus FDA209P [1] [µg/mL] | Minimum growth inhibitory concentration (mcg/ml) against bacteria Mycobacterium smegmatis ATCC607 [2] [µg/mL] |
| --- | --- | --- | --- |
| CCCCCCCCC=CCCCCCCCCNC(=O)C1C(O)CN(C)C(C(OC2OC(CN)C(O)C2O)C2OC(n3ccc(=O)[nH]c3=O)C(O)C2O)C(=O)N1C (stereo not drawn) [Compound V-R] | 25 | 12.5 | 6.25 |
| CCCCCCCCNC(=O)C1=CCN(C)C(C(OC2OC(CN)C(O)C2O)C2OC(n3ccc(=O)[nH]c3=O)C(O)C2O)C(=O)N1C (stereo not drawn) [Compound II-C] | 0.78 | 6.25 | 12.5 |
| CCCCCCCCCCCC(=O)OC1CN(C)C(C(OC2OC(CN)C(O)C2O)C2OC(n3ccc(=O)[nH]c3=O)C(O)C2O)C(=O)N(C)C1C(=O)OC (stereo not drawn) [Compound VII-G, caprazol-1′″-methyl-ester-3′″-dodecanoyl-ester Derivative] | >100 | >100 | 50 |
| CCCCCCCCCCCCCCc1ccc(NC(=O)C2=CCN(C)C(C(OC3OC(CN)C(O)C3O)C3OC(n4ccc(=O)[nH]c4=O)C(O)C3O)C(=O)N2C)cc1 (stereo not drawn) [Compound II-14] | 3.13 | 6.25 | 25 |
| CCCCCCNC(=O)C1C(O)CN(C)C(C(OC2OC(CN)C(O)C2O)C2OC(n3ccc(=O)[nH]c3=O)C(O)C2O)C(=O)N1C (stereo not drawn) [Compound V-A] | 50 | 50 | 12.5 |
| CCCCCCCCCCCCNC(=O)C1=CCN(C)C(C(OC2OC(CNC(=O)OC(C)(C)C)C(O)C2O)C2OC(n3ccc(=O)[nH]c3=O)C(O)C2O)C(=O)N1C (stereo not drawn) [Compound II-G-N-Boc] | 50 | 50 | 50 |
| CCCCCCCCCC=CCOC(=O)C1=CCN(C)C(C(OC2OC(CN)C(O)C2O)C2OC(n3ccc(=O)[nH]c3=O)C(O)C2O)C(=O)N1C (stereo not drawn) [Compound III-EE] | 1.56 | 6.25 | 12.5 |
| CCCCCCCCCCCCNC(=O)C1=CCN(C)C(C(OC2OC(CN)C(O)C2O)C2OC(n3ccc(=O)[nH]c3=O)C(O)C2O)C(=O)N1C (stereo not drawn) [Compound II-G] | 0.39 | 3.13 | 0.39 |
| CCCCCCCCCCCCCCCCCCCCNC(=O)C1=CCN(C)C(C(OC2OC(CN)C(O)C2O)C2OC(n3ccc(=O)[nH]c3=O)C(O)C2O)C(=O)N1C (stereo not drawn) [Compound II-O] | 3.13 | 3.13 | 25 |
| CCCCCCCCCC(=O)OC1CN(C)C(C(OC2OC(CN)C(O)C2O)C2OC(n3ccc(=O)[nH]c3=O)C(O)C2O)C(=O)N(C)C1C(=O)O (stereo not drawn) [Compound VII-D] | 3.13 | 3.13 | 0.78 |
| CCCCCCC(=O)OC1CN(C)C(C(OC2OC(CN)C(O)C2O)C2OC(n3ccc(=O)[nH]c3=O)C(O)C2O)C(=O)N(C)C1C(=O)O (stereo not drawn) [Compound VII-A] | >50 | 25 | 1.56 |
| CCCCCCCCCCCCCCCCNC(=O)C1=CCN(C)C(C(OC2OC(CN)C(O)C2O)C2OC(n3ccc(=O)[nH]c3=O)C(O)C2O)C(=O)N1C (stereo not drawn) [Compound II-K] | 0.78 | 3.13 | 3.13 |
| CCCCCCCCCCCNC(=O)C1C(OC(=O)CCCCCCCCCCC)CN(C)C(C(OC2OC(CN)C(O)C2O)C2OC(n3ccc(=O)[nH]c3=O)C(O)C2O)C(=O)N1C (stereo not drawn) [Compound VI-F] | 3.13 | 12.5 | 6.25 |
| CCCCCCc1ccc(NC(=O)C2=CCN(C)C(C(OC3OC(CN)C(O)C3O)C3OC(n4ccc(=O)[nH]c4=O)C(O)C3O)C(=O)N2C)cc1 (stereo not drawn) [Compound II-6] | 0.39 | 1.56 | 0.78 |
| CCCCCCCCCc1ccc(NC(=O)C2=CCN(C)C(C(OC3OC(CN)C(O)C3O)C3OC(n4ccc(=O)[nH]c4=O)C(O)C3O)C(=O)N2C)cc1 (stereo not drawn) [Compound II-9] | 0.39 | 3.13 | 1.56 |
| CCCCCCCCCCC(=O)OC1CN(C)C(C(OC2OC(CN)C(O)C2O)C2OC(n3ccc(=O)[nH]c3=O)C(O)C2O)C(=O)N(C)C1C(=O)O (stereo not drawn) [Compound VII-E] | 1.56 | 1.56 | 0.39 |
| CCCCCCCCCCCCCCCCCNC(=O)C1=CCN(C)C(C(OC2OC(CN)C(O)C2O)C2OC(n3ccc(=O)[nH]c3=O)C(O)C2O)C(=O)N1C (stereo not drawn) [Compound II-L] | 1.56 | 1.56 | 3.13 |
| CCCCCCCCCCCCCCCNC(=O)C1=CCN(C)C(C(OC2OC(CNC(=O)OC(C)(C)C)C(O)C2O)C2OC(n3ccc(=O)[nH]c3=O)C(O)C2O)C(=O)N1C (stereo not drawn) [Compound II-J-N-Boc] | 12.5 | 12.5 | 25 |
| CCCCCCCCCCCNC(=O)C1=CCN(C)C(C(OC2OC(CN)C(O)C2O)C2OC(n3ccc(=O)[nH]c3=O)C(O)C2O)C(=O)N1C (stereo not drawn) [Compound II-F] | 0.39 | 1.56 | 0.39 |
| CCCCCCCCCCCCCCCCCCNC(=O)C1=CCN(C)C(C(OC2OC(CN)C(O)C2O)C2OC(n3ccc(=O)[nH]c3=O)C(O)C2O)C(=O)N1C (stereo not drawn) [Compound II-M] | 0.78 | 6.25 | 3.13 |
| CCCCCCCNC(=O)C1=CCN(C)C(C(OC2OC(CN)C(O)C2O)C2OC(n3ccc(=O)[nH]c3=O)C(O)C2O)C(=O)N1C (stereo not drawn) [Compound II-B] | 1.56 | 25 | 25 |
| CCCCCCCCCCCCCc1ccc(NC(=O)C2=CCN(C)C(C(OC3OC(CN)C(O)C3O)C3OC(n4ccc(=O)[nH]c4=O)C(O)C3O)C(=O)N2C)cc1 (stereo not drawn) [Compound II-13] | 1.56 | 3.13 | 12.5 |
| CCCCCCCCC=CCCCCCCCCNC(=O)C1C(OC(=O)CCCCCCCCCCC)CN(C)C(C(OC2OC(CN)C(O)C2O)C2OC(n3ccc(=O)[nH]c3=O)C(O)C2O)C(=O)N1C (stereo not drawn) [Compound VI-R] | 3.13 | 25 | 6.25 |
